Assay results as given in the RepoRT retention time repository (doi:10.1016/j.chroma.2019.01.023).

Key:
Conditions in all cases: stereoisomer not certain
[1] = RP, Phenomenex Kinetex C18, 150 × 2.1 mm, 1.7 µm, 30 °C, 0.3 mL/min, estimated dead time 1.1 min; A: water + 0.1% formic acid, pH 3; B: acetonitrile + 0.1% formic acid, pH 3; gradient (min/%B) 0/2 14/100 17/100 17.1/2 25/2
[2] = HILIC, Waters ACQUITY UPLC BEH Amide, 150 × 2.1 mm, 1.7 µm, 40 °C, 0.5 mL/min, estimated dead time 0.66 min; A: 5% water + 95% acetonitrile; B: 70% water + 30% acetonitrile + 10 mM ammonium formate, pH 6.5; gradient (min/%B) 0/0 2/0 20/70 23/70 24/0 31/0
[3] = RP, Phenomenex Kinetex C18, 150 × 2.1 mm, 1.7 µm, 30 °C, 0.3 mL/min, estimated dead time 1.1 min; A: water + 0.1% formic acid, pH 3; B: acetonitrile + 0.1% formic acid, pH 3; gradient (min/%B) 0/2 14/100 17/100 17.1/2 25/2; remark: listed apart in the source
[4] = HILIC, Merck SeQuant ZIC-pHILIC, 150 × 2.1 mm, 5 µm, 40 °C, 0.3 mL/min, estimated dead time 1.1 min; A: acetonitrile; B: water + 2.8 mM ammonium formate, pH 9; gradient (min/%B) 0/5 1/5 10/51 13/51 13.1/5 20/5

SMILES | LC retention time [1] [min] | LC retention time [2] [min] | LC retention time [3] [min] | LC retention time [4] [min]
Cn1cnc2c(ncn2C2OC(CO)C(O)C2O)c1=N (centres undefined) [1-METHYLADENOSINE] | 3.36 | 2.82 | 3.16 | 4.07
CC(=O)c1ccc(O)cc1O [2',4'-DIHYDROXYACETOPHENONE] | 6.45 | 0.96 | 6.35 | 
O=c1[nH]c(=O)c2nccnc2[nH]1 [2,4-DIHYDROXYPTERIDINE] | 2.49 | 1.79 | 2.24 | 4.42
N[C@@H](Cc1cc(I)c(Oc2ccc(O)cc2)c(I)c1)C(=O)O [3,5-DIIODO-L-THYRONINE] | 6.51 | 6.98 | 6.44 | 6.36
Nc1cc([O-])cc(C(=O)O)c1 [3-AMINO-5-HYDROXYBENZOATE] | 1.75 | 2.31 | 1.62 | 8.3
CC(O)(CC(=O)O)CC(=O)O [3-HYDROXYMETHYLGLUTARATE] | 2.36 |  | 2.24 | 8.15
N[C@@H](Cc1ccc(O)c([N+](=O)[O-])c1)C(=O)O [3-NITRO-L-TYROSINE] | 3.56 |  | 3.48 | 7.37
CC(=O)NCCCC(=O)[O-] [4-ACETAMIDOBUTANOATE] | 2.62 | 3.11 | 2.47 | 5.1
O=C(O)C=Cc1ccc(O)cc1 [4-COUMARATE] | 5.65 |  | 5.47 | 5.24
Cc1ncc(CO)c(C(=O)O)c1O [4-PYRIDOXATE] | 2.83 |  | 2.73 | 1.69
O=C(O)c1ccnc2ccccc12 [4-QUINOLINECARBOXYLATE] | 2.5 | 2.82 | 2.29 | 5.08
CC1OC(n2cnc3c(N)ncnc32)C(O)C1O (centres undefined) [5'-DEOXYADENOSINE] | 3.24 | 2.4 | 3.11 | 4.24
O=C(O)Cc1c[nH]c2ccc(O)cc12 [5-HYDROXYINDOLEACETATE] | 4.69 | 1.37 | 4.49 | 5.86
NC(Cc1c[nH]c2ccc(O)cc12)C(=O)O (centres undefined) [5-HYDROXYTRYPTOPHAN] | 3.05 |  | 2.99 | 8.74
O=C(O)CCCCCC(=O)O [6-CARBOXYHEXANOATE] | 4.73 |  | 4.56 | 6.74
O=C(O)c1ccc(=O)[nH]c1 [6-HYDROXYNICOTINATE] | 2.76 | 5.68 | 2.61 | 7.69
O=C(O)CCCCCCCC(=O)O [AZELATE] | 6.26 | 1.24 | 6.14 | 3.51
O=C(O)CCCCC1SCC2NC(=O)NC21 (centres undefined) [BIOTIN] | 4.98 | 5.11 | 4.77 | 5.57
CC(CCC(=O)O)C1CCC2C3C(O)CC4CC(O)CCC4(C)C3CCC12C (centres undefined) [CHENODEOXYCHOLATE] | 10.8 | 1 | 10.7 | 
CC(CCC(=O)O)C1CCC2C3C(O)CC4CC(O)CCC4(C)C3CC(O)C12C (centres undefined) [CHOLATE] | 9.11 | 2.62 | 9.02 | 2.33
CC12CCC(=O)C=C1CCC1C2CCC2(C)C1CCC2(O)C(=O)CO (centres undefined) [CORTEXOLONE] | 8.31 | 0.83 | 8.32 | 
CC12CCC(=O)C=C1CCC1C2C(O)CC2(C)C(C(=O)CO)CCC12 (centres undefined) [CORTICOSTERONE] | 8.14 | 0.85 | 8.03 | 
CC(=O)OCC(=O)C1(O)CCC2C3CCC4=CC(=O)CCC4(C)C3C(O)CC21C (centres undefined) [CORTISOL 21-ACETATE] | 8.68 | 0.83 | 8.62 | 
CC12CCC(=O)C=C1CCC1C2C(O)CC2(C)C1CCC2(O)C(=O)CO (centres undefined) [CORTISOL] | 7.18 | 1 | 7.09 | 1.43
CC12CCC(=O)C=C1CCC1C2C(=O)CC2(C)C1CCC2(O)C(=O)CO (centres undefined) [CORTISONE] | 7.28 | 0.86 | 7.16 | 
Nc1nc2c(ncn2C2OC3COP(=O)(O)OC3C2O)c(=O)[nH]1 (centres undefined) [CYCLIC GMP] | 2.8 |  | 2.64 | 8.22

SMILES | LC retention time [1] [min] | LC retention time [2] [min] | LC retention time [3] [min] | LC retention time [4] [min]
Nc1ncnc2c1ncn2C1CC(O)C(CO)O1 (centres undefined) [DEOXYADENOSINE] | 2.8 | 2.91 | 2.54 | 5.19
Nc1ccn(C2CC(O)C(CO)O2)c(=O)n1 (centres undefined) [DEOXYCYTIDINE] | 1.54 | 5.71 | 1.43 | 6.63
Nc1nc2c(ncn2C2CC(O)C(CO)O2)c(=O)[nH]1 (centres undefined) [DEOXYGUANOSINE] | 2.97 | 6.48 | 2.84 | 7.04
O=c1ccn(C2CC(O)C(CO)O2)c(=O)[nH]1 (centres undefined) [DEOXYURIDINE] | 2.63 | 2.37 | 2.39 | 4.73
CC1NC(=O)NC1CCCCCC(=O)O (centres undefined) [DETHIOBIOTIN] | 5.37 | 2.6 | 5.18 | 3.18
CC(O)C(O)C1=Nc2c(nc(N)[nH]c2=O)NC1 (centres undefined) [DIHYDROBIOPTERIN] | 2.14 |  | 4.09 | 5.52
COc1cc(C=CC(=O)O)ccc1O [FERULATE] | 5.87 | 1.24 | 5.76 | 3.78
Nc1nc2ncc(CNc3ccc(C(=O)NC(CCC(=O)O)C(=O)O)cc3)nc2c(=O)[nH]1 (centres undefined) [FOLATE] | 4.35 |  | 11.3 | 9.42
CC(CCC(=O)NCC(=O)O)C1CCC2C3C(O)CC4CC(O)CCC4(C)C3CCC12C (centres undefined) [GLYCOCHENODEOXYCHOLATE] | 9.28 |  | 9.21 | 4.94
Nc1nc2nc[nH]c2c(=O)[nH]1 [GUANINE] | 1.44 | 6.4 | 1.64 | 7.4
Nc1nc2c(ncn2C2OC(CO)C(O)C2O)c(=O)[nH]1 (centres undefined) [GUANOSINE] | 2.8 | 7.3 | 2.67 | 7.76
O=C(O)CNC(=O)c1ccccc1 [HIPPURATE] | 4.78 | 2.66 | 4.62 | 5.32
O=c1[nH]cnc2nc[nH]c12 [HYPOXANTHINE] | 1.76 | 3.88 | 1.62 | 6.25
NC(=O)Cc1c[nH]c2ccccc12 [INDOLE-3-ACETAMIDE] | 5.42 | 0.98 | 5.26 | 2.09
OCCc1c[nH]c2ccccc12 [INDOLE-3-ETHANOL] | 6.56 | 0.83 | 5.55 | 3.41
O=c1[nH]cnc2c1ncn2C1OC(CO)C(O)C1O (centres undefined) [INOSINE] | 2.79 | 5.52 | 2.64 | 6.86
N[C@@H](Cc1ccc(O)c(O)c1)C(=O)O [L-DOPA] | 1.63 |  | 1.57 | 9.15
NC(Cc1cc(I)c(Oc2ccc(O)c(I)c2)c(I)c1)C(=O)O (centres undefined) [LIOTHYRONINE] | 7.42 |  | 7.41 | 6.19
CC(CCC(=O)NCCS(=O)(=O)O)C1CCC2C3CCC4CC(O)CCC4(C)C3CCC12C (centres undefined) [LITHOCHOLYLTAURINE] | 9.43 | 1.01 | 9.54 | 
CC(=O)NC(CCC(=O)O)C(=O)O (centres undefined) [N-ACETYLGLUTAMATE] | 1.9 |  | 1.78 | 8.75
CC(=O)N1CCCC1C(=O)O (centres undefined) [N-ACETYLPROLINE] | 3.52 |  | 3.39 | 6.05
O=C(O)c1cccnc1C(=O)O [QUINOLINATE] | 1.5 |  | 1.47 | 1.76
CC1NCCc2cc(O)c(O)cc21 (centres undefined) [SALSOLINOL] | 2.16 | 8.1 | 1.95 | 
NC(Cc1cc(I)c(Oc2cc(I)c(O)c(I)c2)c(I)c1)C(=O)O (centres undefined) [THYROXINE] | 8.06 |  | 8.07 | 6.1
O=C(O)c1cc(=O)c2cccc(O)c2[nH]1 [XANTHURENATE] | 4.12 |  | 4.05 | 6.93
